# From patent US6989375B2, “Enhanced expression of transgenes” (priority 1996, dated 2006)
# Assays:
# H1299 cells [1] = experiment: β-gal expression by X-gal staining after Ad/CMV/β-gal infection of agent-treated cells; assay type: cell-based, human
# Method: (§1) Gene Delivery Protocol: In vitro gene delivery was performed by incubating cells in six-well plates (Falcon Plastics, Lincoln Park, N.J.) for two hours with Adv/CMV/β-gal in appropriate medium supplemented with 2% FCS. The multiplicity of infection (MOI: number of viral particles per target cell) was based on cell counts of untreated wells. Fresh, complete medium with the appropriate concentration of FCS was then added to the wells at the end of the infection period and cells were then incubated for 20 hours at 37° C., 5% CO2. After washing the cells with ice cold PBS, the cells were fixed with ice-cold 1.25% glutaraldehyde and stained with X-gal (5-bromo-4-chloro-3-indolyl-β-d-galactoside; Gibco BRL) as previously described (MacGregor et al., 1987). The transduction efficiency by Adv/CMV/β-gal was determined by the percentage of positive stained cells (blue) for β-galactosidase activity (1000 cells counted per well).
# Time Course and Dose Response: To determine the time course of enhancement, H1299 and H460 cells were seeded in 6-well plates (2×10^5 cells/2 mls/well). After an overnight incubation period (37° C., 5% CO2), the initial medium was replaced with freshly prepared media (2 ml) containing 0.062 μg/ml CDDP (Sigma Chemicals, St. Louis, Mo.) (CDDP was prepared fresh by dissolving in distilled water) and the cells were then incubated for 24 hours at 37° C., with 5% CO2. CDDP-treated cells were then washed twice with PBS and subsequently infected with Ad/CMV/β-gal (MOI=1 for H1299 and MOI=5 for H460) on days 0, 1, 2, 3, 4, 5 or 6 following CDDP removal, to determine the time point at which maximal enhancement of expression was occurring. To establish the dose of CDDP needed to produce maximum enhancement, the cells were treated with different concentrations of CDDP (serial, 1:4 dilutions, ranging from 4 μg/ml to 0.0002 μg/ml, 5 ml per 60 mm dish) for 24 hours and subsequently incubated with Ad/CMV/β-gal 48 hours after removal of CDDP. To study if exposure of malignant cells to different classes of antineoplastic agents would lead to a similar elevation of gene expression, H1299 cells were treated with vincristine (Eli Lilly and Co, Indianapolis, Ind.), methotrexate (Lederle Pharmaceuticals, Pearl River, N.Y.), 5-fluorouracil (SoloPak Laboratories, Elk Grove Village, Ill.), epotoside (Bristol Laboratories, Princeton, N.J.) and transplatin (the isomer of CDDP that has no anticancer activity, Sigma Chemical, St. Louis, Mo.) in the similar fashion as CDDP treatment and then infected with Ad/CMV/β-gal 48 hours after removal of drug-containing media. H1299 cells were treated with 2, 4, 8, or 16 Grey (Gy) of ionizing irradiation and then similarly infected 72 hours after irradiation. Untreated cells that were similarly infected, served as controls.
# H460 cells = experiment: β-gal expression by X-gal staining after Ad/CMV/β-gal infection of CDDP-treated cells; assay type: cell-based, human
# Method: as §1
# Time Course and Dose Response: To determine the time course of enhancement, H1299 and H460 cells were seeded in 6-well plates (2×10^5 cells/2 mls/well). After an overnight incubation period (37° C., 5% CO2), the initial medium was replaced with freshly prepared media (2 ml) containing 0.062 μg/ml CDDP (Sigma Chemicals, St. Louis, Mo.) (CDDP was prepared fresh by dissolving in distilled water) and the cells were then incubated for 24 hours at 37° C., with 5% CO2. CDDP-treated cells were then washed twice with PBS and subsequently infected with Ad/CMV/β-gal (MOI=1 for H1299 and MOI=5 for H460) on days 0, 1, 2, 3, 4, 5 or 6 following CDDP removal, to determine the time point at which maximal enhancement of expression was occurring. To establish the dose of CDDP needed to produce maximum enhancement, the cells were treated with different concentrations of CDDP (serial, 1:4 dilutions, ranging from 4 μg/ml to 0.0002 μg/ml, 5 ml per 60 mm dish) for 24 hours and subsequently incubated with Ad/CMV/β-gal 48 hours after removal of CDDP. […]
# H1299 cells [2] = experiment: β-gal expression after gene delivery with Ad/PLL/DNA complex or lipofectamine in CDDP-treated cells; assay type: cell-based, human; details: 48 hrs after CDDP removal
# Method: Gene Transfer Vectors: The recombinant adenovirus carrying the Escherichia coli β-galactosidase gene under the control of the human cytomegalovirus enhancer/promotor (Ad/CMV/β-gal) or the replication defective adenovirus were propagated on 293 cells and purified and stored using techniques previously reported (Nguyen et al., 1996). Viral titer was determined by UV spectrophotometric analysis (Nguyen et al., 1996a; 1996b). To determine if the CDDP-induced enhancement of gene expression would be dependent on the method of gene delivery, two other gene delivery systems were used: the Ad/PLL/DNA complex (Nguyen et al., 1996a; 1996b) and cationic liposomes (Lipofectamine, Gibco BRL). CDDP (0.062 μg/ml)-treated H1299 cells were incubated with either gene delivery system carrying a plasmid that contained the β-gal gene under the control of the CMV enhancer/promotor (CMV/β-gal) 48 hours after drug removal. Plasmid DNA was isolated by the alkaline lysis technique and purified by using Qiagen DNA purification kits (Qiagen, Chatsworth, Calif.). Plasmid containing liposome preparations and gene transfer were performed according to the manufacturer's protocol. The conjugated Ad/PLL/DNA complex was constructed and used to deliver the β-gal gene to H1299 and H460 cells as described elsewhere (Nguyen et al., 1996a; 1996b).
# [3] = system: primary normal human bronchial epithelial (NHBE) cells; experiment: β-gal expression by X-gal staining after Ad/CMV/β-gal infection of CDDP-treated normal cells; assay type: cell-based; details: CDDP 0.062 μg/ml; 90% confluent
# Method: The human non-small cell lung carcinoma cell lines H1299 and H460 were grown in RPMI-1640 medium supplemented with 5% heat-inactivated fetal calf serum (FCS), 10 mM glutamine, 100 units/ml of penicillin, 100 μg/ml of streptomycin and 0.25 μg/ml of amphotericin B. Human non-small cell lung carcinoma cell lines H358, H226br, and the cervical cancer cell line SiHa were maintained in complete RPMI-1640 medium supplemented with 10% FCS. The cell line A549 (human, non-small cell lung carcinoma) was grown in Ham's F12 nutrient mixture solution (Gibco BRL, Gaithersburg, Md.) similarly supplemented with antibiotics, glutamine and 10% FCS.
# as §1, with “After washing the cells with ice cold PBS, the cells were fixed with ice-cold 1.25% glutaraldehyde and stained with X-gal (5-bromo-4-chloro-3-indolyl-β-d-galactoside; Gibco BRL) as previously described (MacGregor et al., 1987).” left out
# H1299 cells [4] = experiment: In situ TUNEL assay for apoptosis; assay type: cell-based, human; details: CDDP = prior CDDP treatment, Ad/CMV/p53 = not exposed to CDDP
# Method: CDDP-treated or control H1299 cells were fixed in 50% acetone/ethanol for 20 minutes at −20° C. 12 hrs and 24 hrs after transfection with Adv/CMV/p53 (MOI=5). In situ TdT (terminal deoxynucleotidyl transferase)-mediated dUTP-biotin nick end-labeling (TUNEL) assay was performed according to the procedure described elsewhere (Gavrieli et al., 1992). H1299 cells used as positive controls were treated with DNAse I (Gibco BRL, Gaithersburg, Md.), for 1 hr at 37° C. (50 μg/ml in 10 mM Tris-HCI pH=7.5; 140 mM sodium cacodylate, 4 mM MgCl2, 10 mM dithiothreitol).
# [5] = system: CDDP-resistant ovarian carcinoma cells (2008); details: CDDP four to six weeks prior (in vitro) or once one week prior (in vivo); cited from earlier work
# [6] = 24 h exposure, infected 48 hours after CDDP removal
# [7] = CDDP at 0.0039 and 1 μg/ml, infected 48 hours after CDDP removal
structure (smiles),measurement,setting,value
"N.N.[Cl][Pt][Cl] [CDDP, cis-dichlorodimminocisplatin]",CDDP concentration at which maximal enhancement of β-gal gene expression occurred,H1299 cells [1]; [6],0.062 µg/mL
same,Time of gene transfer after drug treatment for maximal enhancement,H1299 cells [1]; CDDP 0.062 μg/ml,about 48 hours
same,Enhancement of β-gal gene expression,H1299 cells [1]; [7],also an enhancement
same,Enhancement of β-gal expression (FIG. 3),"H1299 cells [1]; drugs at 0.062 μg/ml or irradiated with 8 Greys, stained 24 hrs after infection",Enhancement of β-gal expression was observed
same,Magnitude of maximal enhancement of transgene expression (FIG. 4B),H1299 cells [1]; gene transfer 48 hours after exposure to 0.062 μg/ml of CDDP,2.7 fold
same,CDDP concentration at which maximal enhancement of β-gal gene expression occurred,H460 cells; [6],0.062 µg/mL
same,Time of gene transfer after drug treatment for maximal enhancement,H460 cells; CDDP 0.062 μg/ml,about 48 hours
same,Enhancement of β-gal gene expression,H460 cells; [7],also an enhancement
same,β-gal gene expressing cells compared with adenovirus-mediated gene transfer,H1299 cells [2]; cationic phospholipid lipofectamine carrying CMV/β-gal plasmid,same magnitude
same,β-gal gene expressing cells compared with adenovirus-mediated gene transfer,H1299 cells [2]; conjugated Ad/PLL/DNA complex carrying CMV/β-gal plasmid,same magnitude
same,Enhancement of gene expression in stationary normal cells,[3],failed to enhance gene expression
same,Apoptosis (TUNEL-positive cells),H1299 cells [4]; 12 hrs after Ad/CMV/p53 transfection (MOI=5),much higher frequency than in untreated cells
same,Apoptosis (TUNEL-positive cells),H1299 cells [4]; 24 hrs after Ad/CMV/p53 transfection (MOI=5),almost all CDDP-treated cells stained positive for DNA fragmentation
same,Gene transduction after CDDP exposure prior to liposome-mediated gene transfer,[5],enhanced gene transduction
